Measurements from patent US20220015404A1, “TRAUMATIC ACID COMPOSITIONS AND METHODS FOR TASTE MODULATION” (INTERNATIONAL FLAVORS & FRAGRANCES INC., priority 2018, published 2022).

Key:
Type in all cases: in vivo
[1] = Descriptive sensory evaluation in sugar water (4% sucrose in drinking water); conditions: 5 ppm in sugar water (4% sucrose in drinking water), vs base solution
Experimental: Sugar water (4% sucrose in drinking water) was prepared and used as a base solution. Different amounts of traumatic acid were added to the base solution and descriptive sensory evaluations were performed (Table 1).
Sugar water (4% sucrose in drinking water) was prepared and used as a base solution. Traumatic acid and 3-dodecenedioic acid were added to the base solution and descriptive sensory evaluations were performed (Table 2).

[2] = Descriptive sensory evaluation of traumatic acid in different applications
Experimental: Descriptive sensory evaluations were carried out using different amounts of traumatic acid in different applications.

[3] = Descriptive sensory evaluation in sweetened milk (2% fat milk with 2% sucrose); conditions: 2 ppm of each acid in sweetened milk (2% fat milk with 2% sucrose), vs base
Experimental: Sweetened milk (2% fat milk with 2% sucrose) was prepared and used as a base solution (“base”).

[4] = Comparison of sweetness and mouthfeel enhancement and off-flavor masking with analogs; conditions: 5 ppm, compared with mesaconic acid, glutaconic acid, trans-β-Hydromuconic acid, e-oct-4ene-1, 8-dioic acid

SMILES | Taste Evaluation [1] | Taste Evaluation ([2]; 40 ppm in 3% Sugar + 0.05% Citric Acid Water Solution) | Taste Evaluation ([2]; 40 ppm in Water, vs same application without traumatic acid) | Taste Evaluation [3] | sweetness and mouthfeel enhancement as well as off-flavor masking [4]
O=C(O)/C=C/CCCCCCCCC(=O)O [Traumatic acid, traumatic acid] | enhanced the sweetness and mouthfeel of sugar water | Fatty and oily | Fatty and oily | increased sweetness and mouthfeel of sweetened milk | exhibited the strongest and the longest-lasting effect
O=C(O)CCCCCCCCC(=O)O [Sebacic Acid, sebacic acid] |  |  |  | increased sweetness and mouthfeel of sweetened milk | 
O=C(O)CC=CCCCCCCCC(=O)O [3-Dodecenedioic acid, 3-dodecenedioic acid] | enhanced the sweetness and mouthfeel of sugar water |  |  |  | 
